What follows are compounds tested against T1, Human Glucocorticoid Receptor (GR) (Homo sapiens, UniProt P04150) (assay: Human Glucocorticoid Receptor (GR) radioligand binding assay (3H-dexamethasone competition)). Conditions: full length GR; 7 nM 3H-dexamethasone; 2 h at room temperature.
T1 construct: The full length GR was diluted to a final concentration of 3.3% (0.495 mg/ml) in assay buffer
T1 sequence (P04150 1-777): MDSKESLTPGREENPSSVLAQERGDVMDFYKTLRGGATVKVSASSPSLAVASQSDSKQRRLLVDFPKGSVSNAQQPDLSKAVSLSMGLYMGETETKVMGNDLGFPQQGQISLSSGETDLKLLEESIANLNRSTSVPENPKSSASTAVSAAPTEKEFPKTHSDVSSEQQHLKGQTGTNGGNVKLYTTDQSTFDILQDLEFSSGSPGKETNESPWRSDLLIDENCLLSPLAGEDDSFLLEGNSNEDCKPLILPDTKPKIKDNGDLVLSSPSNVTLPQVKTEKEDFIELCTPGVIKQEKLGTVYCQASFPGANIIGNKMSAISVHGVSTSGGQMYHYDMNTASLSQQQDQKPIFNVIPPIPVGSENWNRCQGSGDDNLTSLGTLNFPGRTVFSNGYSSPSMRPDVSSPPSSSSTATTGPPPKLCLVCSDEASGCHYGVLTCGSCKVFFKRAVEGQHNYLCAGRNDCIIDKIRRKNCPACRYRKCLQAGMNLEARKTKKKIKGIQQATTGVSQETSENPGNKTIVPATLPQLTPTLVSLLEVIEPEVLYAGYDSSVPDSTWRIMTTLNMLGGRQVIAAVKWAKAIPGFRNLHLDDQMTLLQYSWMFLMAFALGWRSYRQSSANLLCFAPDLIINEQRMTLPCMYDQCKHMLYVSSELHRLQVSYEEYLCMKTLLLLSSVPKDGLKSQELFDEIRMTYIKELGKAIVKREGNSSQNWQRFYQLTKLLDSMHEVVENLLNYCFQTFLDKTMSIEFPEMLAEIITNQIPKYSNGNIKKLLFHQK
Protocol: Human Glucocorticoid Receptor (GR) Assay
The radioligand GR binding assay is based on a competition assay using ^3H-labeled Dexamethasone. Dexamethasone is known to bind in the ligand binding domain of GR and compete for binding with endogenous ligands like e.g. cortisol (Necela, 2003). In the GR radioligand binding assay, test compounds were serially diluted in semi-log steps (10 concentrations) with a final concentration of 10 μM. Test compounds (1 μL) and controls (1 μL) in 100% DMSO were added to 96 Greiner V-bottom polypropylene plates. 0% control was 6.7% DMSO (final concentration in assay) and 100% control was 6.7 μM Dexamethasone.
The full length GR was diluted to a final concentration of 3.3% (0.495 mg/ml) in assay buffer (20 mM Tris-HCl, 1 mM EDTA, 10% (w/v) Glycerol, 20 mM Sodium molybdate, pH 7.4). 45 μL of GR was added to each well and the plates were incubated for 15 min at room temperature.
^3H-dexamethasone solution was diluted to a concentration of 70 nM in assay buffer (7 nM final assay concentration) and 5 μL was added to each well. The samples were mixed for 5 min using a plate shaker at 700 rpm, before incubation for 2 h at room temperature.
50 μL ice-cold charcoal solution (pH 7.4:2% Charcoal, 0.2% Dextran T70 in 20 mM Tris-HCl, 1 mM EDTA and 20 mM Sodium molybdate) was added to each well and the samples were mixed on plate shaker for 5 minutes.
The plate was then centrifuged for 1.5 min at 1500 rpm, the samples (80 μL) were is transferred from each well to a filter plate (Millipore, 0.45 μm, MHVBN45) on a vacuum manifold and then collected into new plates (Greiner, 96 well white/transparent, 655095). The filter plate was washed once with 20 μl of water and then 100 μL of scintillation liquid was added to each well and mixed by incubation on plate shaker for 5 min. Radioactivity was measured in a 1450 Microbeta Trilux Reader (Wallac) counting cpm for 2 minutes per well. The data obtained from each replicate experiment were analysed using the software ActivityBase, version 5.4.3 (ID Business Solutions Ltd) and IC50 values were calculated. Ref: Necela, B M, Cidlowski, J A, Trends Pharmacol Sci, 24: 58, 2003

Question: Which IC50 does the source give for `C[C@H](NC(=O)C(C)(F)F)[C@H](Oc1ccc2c(cnn2-c2cccc(C(=O)N3C[C@H](O)C[C@H]3C(N)=O)c2)c1)c1ccccc1` [Example 20, (4R)-1-({3-[5-({(1R,2S)-2-[(2,2-difluoropropanoyl)amino]-1-phenylpropyl}oxy)-1H-indazol-1-yl]phenyl}carbonyl)-4-hydroxy-L-prolinamide] here?
Answer: Its IC50 is 75.9 nM.

Question: Which IC50 does the source give for `COc1ccc([C@@H](Oc2ccc3c(cnn3-c3cccc(C(=O)NC4CCCC4)c3)c2)[C@H](CO)NC(=O)C(C)(F)F)cn1` [Example 27] here?
Answer: Its IC50 is 13.6 nM.

Question: For `COc1ccc([C@@H](Oc2ccc3c(cnn3-c3cccc(C(=O)Nc4cccnc4)c3)c2)[C@H](C)NC(=O)C(C)(F)F)cn1` [Example 23, 3-(5-{[(1R,2S)-2-[(2,2-difluoropropanoyl)amino]-1-(6-methoxypyridin-3-yl)propyl]oxy}-1H-indazol-1-yl)-N-(pyridin-3-yl)benzamide], which IC50 is on record?
Answer: The IC50 was 0.86 nM.

Question: For `C[C@H](NC(=O)C(C)(F)F)[C@H](Oc1ccc2c(cnn2-c2cccc(C(=O)NCc3n[nH]c4ccccc34)c2)c1)c1ccccc1` [Example 16, 3-[5-({(1R,2S)-2-[(2,2-difluoropropanoyl)amino]-1-phenylpropyl}oxy)-1H-indazol-1-yl]-N-(1H-indazol-3-ylmethyl)benzamide], which IC50 is on record?
Answer: Its IC50 is 42.4 nM.

Question: With `COc1ccc([C@@H](Oc2ccc3c(cnn3-c3cccc(C(=O)NC4CCS(=O)(=O)C4)c3)c2)[C@H](C)NC(=O)C(C)(F)F)cn1` (stereo partly drawn) [Example 24, 3-(5-{[(1R,2S)-2-[(2,2-difluoropropanoyl)amino]-1-(6-methoxypyridin-3-yl)propyl]oxy}-1H-indazol-1-yl)-N-(1,1-dioxidotetrahydrothiophen-3-yl)benzamide] as the compound, how does the IC50 read?
Answer: The IC50 was 4.46 nM.

Question: With `C[C@H](NC(=O)C1(C#N)CC1)[C@H](Oc1ccc2c(cnn2-c2cccc(C(=O)N3CCC[C@@H]3C(N)=O)c2)c1)c1ccccc1` [Example 21, 1-{[3-(5-{[(1R,2S)-2-{-[1(1-cyanocyclopropyl)carbonyl]amino}-1-phenylpropyl]oxy}-1H-indazol-1-yl)phenyl]carbonyl}-D-prolinamide] as the compound, how does the IC50 read?
Answer: The IC50 was 2.91 nM.

Question: With `C[C@H](NC(=O)C(C)(F)F)[C@H](Oc1ccc2c(cnn2-c2cccc(C(=O)NCCN3CCNC3=O)c2)c1)c1ccccc1` [Example 7, 3-[5-({(1R,2S)-2-[(2,2-difluoropropanoyl)amino]-1-phenylpropyl}oxy)-1H-indazol-1-yl]-N-[2-(2-oxoimidazolidin-1-yl)ethyl]benzamide] as the compound, how does the IC50 read?
Answer: Its IC50 is 16.9 nM.

Question: `COc1ccc([C@@H](Oc2ccc3c(cnn3-c3cccc(C(=O)NCc4cccnc4)c3)c2)[C@H](C)NC(=O)C(C)(F)F)cn1` [Example 28, 3-(5-{[(1R,2S)-2-[(2,2-difluoropropanoyl)amino]-1-(6-methoxypyridin-3-yl)propyl]oxy}-1H-indazol-1-yl)-N-(pyridin-3-ylmethyl)benzamide] was tested. Which IC50 did it give?
Answer: Its IC50 is 1.39 nM.

Question: For `C[C@H](NC(=O)C(C)(F)F)[C@H](Oc1ccc2c(cnn2-c2cccc(C(=O)NCCN3CCCC3=O)c2)c1)c1ccccc1` [Example 13, 3-[5-({(1R,2S)-2-[(2,2-difluoropropanoyl)amino]-1-phenylpropyl}oxy)-1H-indazol-1-yl]-N-[2-(2-oxopyrrolidin-1-yl)ethyl]benzamide], which IC50 is on record?
Answer: The IC50 was 38.4 nM.

Question: With `C[C@H](NC(=O)C(C)(F)F)[C@H](Oc1ccc2c(cnn2-c2cccc(C(=O)N(C)CC(N)=O)c2)c1)c1ccccc1` [Example 18] as the compound, how does the IC50 read?
Answer: Its IC50 is 4.22 nM.

Question: `C[C@H](NC(=O)c1cccc(-n2ncc3cc(O[C@H](c4ccccc4)[C@H](C)NC(=O)C(C)(F)F)ccc32)c1)C(N)=O` [Example 5, N-[(1S)-2-amino-1-methyl-2-oxoethyl]-3-[5-({(1R,2S)-2-[(2,2-difluoropropanoyl)amino]-1-phenylpropyl}oxy)-1H-indazol-1-yl]benzamide] was tested. Which IC50 did it give?
Answer: Its IC50 is 1.93 nM.

Question: Which IC50 does the source give for `C[C@H](NC(=O)C(C)(F)F)[C@H](Oc1ccc2c(cnn2-c2cccc(C(=O)N3CCNC(=O)C3)c2)c1)c1ccccc1` [Example 12, 2,2-Difluoro-N-{(1S,2R)-1-methyl-2-[(1-{3-[(3-oxopiperazin-1-yl)carbonyl]phenyl}-1H-indazol-5-yl)oxy]-2-phenylethyl}propanamide] here?
Answer: The IC50 was 2.54 nM.

Question: For `C[C@H](NC(=O)C(C)(F)F)[C@H](Oc1ccc2c(cnn2-c2cccc(C(=O)N3CC[C@@H](O)C3)c2)c1)c1ccccc1` [Example 9, 2,2-Difluoro-N-[(1S,2R)-2-{[1-(3-{[(3R)-3-hydroxypyrrolidin-1-yl]carbonyl}phenyl)-1H-indazol-5-yl]oxy}-1-methyl-2-phenylethyl]propanamide], which IC50 is on record?
Answer: Its IC50 is 5.65 nM.

Question: For `C[C@H](NC(=O)C(C)(F)F)[C@H](Oc1ccc2c(cnn2-c2cccc(C(=O)NCCN3C(=O)OC(C)(C)C3=O)c2)c1)c1ccccc1` [Example 14, 3-[5-({(1R,2S)-2-[(2,2-difluoropropanoyl)amino]-1-phenylpropyl}oxy)-1H-indazol-1-yl]-N-[2-(5,5-dimethyl-2,4-dioxo-1,3-oxazolidin-3-yl)ethyl]benzamide], which IC50 is on record?
Answer: Its IC50 is 40.2 nM.

Question: Which IC50 does the source give for `C[C@H](NC(=O)C(C)(F)F)[C@H](Oc1ccc2c(cnn2-c2cccc(C(=O)NCC(N)=O)c2)c1)c1ccccc1` [Example 4, N-(2-amino-2-oxoethyl)-3-[5-({(1R,2S)-2-[(2,2-difluoropropanoyl)amino]-1-phenylpropyl}oxy)-1H-indazol-1-yl]benzamide] here?
Answer: Its IC50 is 1.61 nM.

Question: For `COc1ccc([C@@H](Oc2ccc3c(cnn3-c3cccc(C(=O)NC4CCCC4)c3)c2)[C@H](C)NC(=O)C(C)(F)F)cn1` [Example 22, N-cyclopentyl-3-(5-{[(1R,2S)-2-[(2,2-difluoropropanoyl)amino]-1-(6-methoxypyridin-3-yl)propyl]oxy}-1H-indazol-1-yl)benzamide], which IC50 is on record?
Answer: The IC50 was 1.37 nM.

Question: How did the IC50 turn out when `C[C@H](NC(=O)C(C)(F)F)[C@H](Oc1ccc2c(cnn2-c2cccc(C(=O)N[C@@H](C(N)=O)c3ccccc3)c2)c1)c1ccccc1` [Example 17, N-[(1R)-2-amino-2-oxo-1-phenylethyl]-3-[5-({(1R,2S)-2-[(2,2-difluoropropanoyl)amino]-1phenylpropyl}oxy)-1H-indazol-1-yl]benzamide] was run?
Answer: The IC50 was 3.55 nM.

Question: Which IC50 does the source give for `CCC(O)CNC(=O)c1cccc(-n2ncc3cc(O[C@H](c4ccc(OC)nc4)[C@H](C)NC(=O)C(C)(F)F)ccc32)c1` (stereo partly drawn) [Example 26, 3-(5-{[(1R,2S)-2-[(2,2-difluoropropanoyl)amino]-1-(6-methoxypyridin-3-yl)propyl]oxy}-1H-indazol-1-yl)-N-(2-hydroxybutyl)benzamide] here?
Answer: Its IC50 is 4.13 nM.

Question: With `C[C@H](NC(=O)C(C)(F)F)[C@H](Oc1ccc2c(cnn2-c2cccc(C(=O)NCCO)c2)c1)c1ccccc1` [Example 3, 3-[5-({(1R,2S)-2-[(2,2-difluoropropanoyl)amino]-1-phenylpropyl}oxy)-1H-indazol-1-yl]-N-(2-hydroxyethyl)benzamide] as the compound, how does the IC50 read?
Answer: The IC50 was 1.69 nM.

Question: `C[C@H](NC(=O)C(C)(F)F)[C@H](Oc1ccc2c(cnn2-c2cccc(C(=O)NCCC(N)=O)c2)c1)c1ccccc1` [Example 19, N-(3-amino-3-oxopropyl)-3-[5-({(1R,2S)-2-[(2,2-difluoropropanoyl)amino]-1-phenylpropyl}oxy)-1H-indazol-1-yl]benzamide] was tested. Which IC50 did it give?
Answer: Its IC50 is 2.29 nM.

Question: For `CC(=O)NCCNC(=O)c1cccc(-n2ncc3cc(O[C@H](c4ccccc4)[C@H](C)NC(=O)C(C)(F)F)ccc32)c1` [Example 6, N-[2-(acetylamino)ethyl]-3-[5-({(1R,2S)-2-[(2,2-difluoropropanoyl)amino]-1-phenylpropyl}oxy)-1H-indazol-1-yl]benzamide], which IC50 is on record?
Answer: The IC50 was 5.06 nM.

Reference: patent US20100080786A1, “Phenyl or Pyridinyl Substituted Indazoles Derivatives” (priority 2008, published 2010)
